Patent US9169217B2, “Arylalkyl esters of 4-amino-6-(substituted phenyl)-picolinates and 6-amino-2-(substituted phenyl)-pyrimidinecarboxylates and their use as selective herbicides for crops” (Dow AgroSciences LLC, priority 2011, dated 2015)
Where two headings read alike, the source gives them in different places.

Assays:
Assay type in all cases: in vivo
[1] = test system: Echinochloa crus-galli (L.) P.BEAUV. (barnyardgrass); experiment: In-water applied herbicidal activity in transplanted paddy rice (Example 17); details: for GR50 / GR80 / GR90: ECHCG, in-water applied, probit analysis; for GR50: 50% growth reduction; for GR80: 80% growth reduction; for GR90: 90% growth reduction; for pest or weed control at 17.5 g/ha / pest or weed control at 35 g/ha: Echinochloa crus-galli, 504 h, read-out: Visual Injury (%) ECHCG; for pest or weed control at 35 g/ha: 35 g ae/ha
Summary of the method: (§1)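 Ester forms of test compounds, in acetone diluted with aqueous Agri-dex (final 1.25% v/v crop oil concentrate), were injected into the flood water of paddy pots holding weeds or rice at the 2nd–3rd leaf stage in mud (pH ~7.3–7.8). Visual injury versus untreated plants was scored 0–100% after 3 weeks in greenhouse (~29/26 °C). GR50/GR80 were derived by probit analysis.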

[2] = test system: Fimbristylis miliacea (L.) VAHL (globe fringerush); experiment: as above; details: for GR50 / GR80 / GR90: FIMMI, in-water applied, probit analysis; for GR50: 50% growth reduction; for GR80: 80% growth reduction; for GR90: 90% growth reduction; for Visual Injury (%) FIMMI: rice cropping systems, in-water applied (paddy), 35 g ae/ha, 21 DAA, may represent multiple trials
Summary of the method: as §1

[3] = test system: Echinochloa colonum (L.) LINK (junglerice); experiment: Postemergence foliar-applied herbicidal activity in direct seeded rice (Example 16); details: for GR50 / GR80 / GR90: ECHCO, probit analysis; for GR50: 50% growth reduction; for GR80: 80% growth reduction; for GR90: 90% growth reduction; for pest or weed control at 8.75 g/ha: Echinochloa colona, post-emergence, 504 h, rice cropping systems, 8.75 g ae/ha, 21 DAA, may represent multiple trials, read-out: Visual Injury (%) ECHCO
Summary of the method: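 Greenhouse plants at 2nd–3rd true leaf stage (10–17 d, ~29/26 °C, 14-h photoperiod) sprayed postemergence with ester forms in acetone–DMSO plus 1.25% crop oil concentrate at 187 L/ha. Visual injury scored 0–100% versus untreated plants after 3 weeks; GR50/GR80 derived by probit analysis.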

[4] = rice cropping systems, in-water applied (paddy), 21 DAA, may represent multiple trials
[5] = rice cropping systems, in-water applied (paddy), 17.5 g ae/ha, 21 DAA, may represent multiple trials

With `COc1c(Cl)ccc(-c2nc(C(=O)OCc3ccccc3)c(Cl)c(N)c2F)c1F` [Compound 1, benzyl 4-amino-3-chloro-6-(4-chloro-2-fluoro-3-methoxyphenyl)-5-fluoropicolinate] the GR50 [1] was 10.9 g ae/ha, the GR80 [1] was 21.8 g ae/ha and the GR90 [1] was 31.2 g ae/ha. For the same compound, the pest or weed control at 17.5 g/ha [1] was 87%, the GR50 [2] was less than 17.5 g ae/ha and the GR80 [2] was less than 17.5 g ae/ha. The GR90 [2] was less than 17.5 g ae/ha, the GR50 [3] was 2.4 g ae/ha and the GR80 [3] was 7.8 g ae/ha. It also gave a GR90 [3] of 14.4 g ae/ha.
`COc1c(Cl)ccc(-c2cc(N)c(Cl)c(C(=O)OCc3ccccc3)n2)c1F` [Compound 39] was tested, and the pest or weed control at 35 g/ha [1, 4] was 100% and the “Visual Injury (%) FIMMI” value [2] was 100%.
With `Nc1c(F)c(-c2ccc(C3CC3)cc2)nc(C(=O)OCc2ccccc2)c1Cl` [Compound 42, benzyl 4-amino-3-chloro-6-(4-cyclopropylphenyl)-5-fluoropicolinate] the pest or weed control at 17.5 g/ha [1, 5] was 70% and the pest or weed control at 8.75 g/ha [3] was 85%.
`COC(=O)c1nc(-c2ccc(C3CC3)cc2)c(F)c(N)c1Cl` [Compound B, methyl 4-amino-3-chloro-6-(4-cyclopropylphenyl)-5-fluoropicolinate] gave a pest or weed control at 17.5 g/ha [1, 5] of 10% and a pest or weed control at 8.75 g/ha [3] of 50%.
For `COC(=O)c1nc(-c2ccc(Cl)c(OC)c2F)nc(N)c1OC` [Compound F, methyl 6-amino-2-(4-chloro-2-fluoro-3-methoxyphenyl)-5-methoxypyrimidine-4-carboxylate, reference compound], the pest or weed control at 35 g/ha [1, 4] was 0%.
For `COC(=O)c1nc(-c2ccc(Cl)c(OC)c2F)cc(N)c1Cl` [Compound G, methyl 4-amino-3-chloro-6-(4-chloro-2-fluoro-3-methoxyphenyl)picolinate, reference compound], the pest or weed control at 35 g/ha [1, 4] was 74% and the “Visual Injury (%) FIMMI” value [2] was 61%.
In the case of `COC(=O)c1nc(-c2ccc(Cl)c(OC)c2F)c(F)c(N)c1Cl` [E, methyl 4-amino-3-chloro-6-(4-chloro-2-fluoro-3-methoxyphenyl)-5-fluoropicolinate, reference compound], the GR50 [1] is reported as 33.2 g ae/ha, the GR80 [1] is reported as 58.5 g ae/ha and the GR90 [1] is reported as 78.7 g ae/ha. The pest or weed control at 17.5 g/ha [1, 5] was 26%, the GR50 [2] was 14.4 g ae/ha and the GR80 [2] was 21.7 g ae/ha. It also gave a GR90 [2] of 26.8 g ae/ha, a GR50 [3] of less than 4.38 g ae/ha and a GR80 [3] of 14.6 g ae/ha. It also gave a GR90 [3] of 55.6 g ae/ha.
